# Data as given in patent publication EP4559473A1, “PEPTIDE FOR THE TREATMENT OF DISEASES ASSOCIATED WITH APOLIPOPROTEIN AI OR TRANSTHYRETIN INVOLVEMENT” (Centro de Ingeniería Genética y Biotecnología, priority 2022, dated 2025).
# Ends that are not written are not given here.
# Columns and labels:
# [1] = Treatment of patients with ischemic heart disease and high blood pressure; type: in vivo; conditions: six patients, 1 mg every 12 hours intravenously for seven days; clinical and imaging evaluation
# Method: It is exemplified with the results of six patients. They presented ischemic heart disease, associated with high blood pressure, which produced a state of severity. They were treated in the Intermediate Care Unit (IMCU) of the "Luis Díaz Soto" hospital in Havana. These patients were treated with a pharmaceutical composition comprising the peptide identified as SEQ ID NO: 1, so that a peptide dose of 1 mg every 12 hours was administered intravenously for seven days. In addition, they received the standard therapy needed for these cases.
# The treatment with this peptide was very safe, and verified by monitoring blood biochemistry parameters and differential blood count.
# [2] = Treatment of patients with type II diabetes (diabetic decompensation); type: in vivo; conditions: five patients, 1 mg every 12 hours intravenously for eight days; clinical and imaging evaluation
# Method: It is exemplified with ten patients who had diabetic decompensation and reached a state of severity, that let them to be treated in the ICU of the hospital "Luis Díaz Soto" in Havana. Five of these patients were treated with a pharmaceutical composition comprising the peptide identified as SEQ ID NO: 1, so that a peptide dose of 1 mg every 12 hours was administered intravenously for eight days. In addition, they received the standard therapy needed for these cases.
# Treatment with this peptide was very safe and was verified by monitoring blood biochemistry parameters and differential blood count.
sequence,measurement,setting,value
SIDLKDKYKNIGAKLVQLVANNTNEEA [peptide identified as SEQ ID NO: 1],side effects,[1],No side effects were observed
same,side effects,[2],No side effects were observed
